Source: US9492416B2, “Use of caftaric acid and lactic bacterium in food supplement for regulating skin pigmentation” (Nestec S.A., priority 2010, dated 2016)

System: B16 murine melanocyte cell line
Experiment: Production of melanin by B16 murine melanocyte cell line
Format: cell-based
Conditions: B16 melanocytes, 72 hours; Kojic acid at 400 μg/mL
Experimental: In order to evaluate the potential beneficial effect of ingredients towards skin de- or pro-pigmentation we used 2D culture of murine melanocytes (B16) and we performed 2 tests: 1—assessment of melanin production and 2—assessment of tyrosinase production.
1. The Cell Culture Conditions. • B16 cells were cultured in DMEM 1 g/L glucose without phenol red supplemented with 10% foetal calf serum, in a humidified chamber at 37° C. and containing 5% CO2.
2. The Production of Melanin by B16 Murine Melanocyte Cell Line. • Cells were incubated with the selected ingredients or the test references (Kojic acid at 400 μg/mL) for 72 hours, in the presence or absence of NDP-MSH an analog of MSH. The total quantity of melanin (extracellular and intracellular) was evaluated by measurement of the optical density at 405 nm of each sample against melanin standards in presence or in absence of NDP-MSH.
Caftaric acid has been pre-treated with La-1 [(spray dried culture Lactobacillus Johnsonii CNCM I-1225, 1.19E10 cfu/g) for 24 hours in a thermomixer at 40° C., under shaking conditions. After incubation, samples have been centrifuged 5 minutes at 3000 g. After this treatment the probiotic as such is not present anymore in the sample however the presence of its metabolites can't be excluded.

Question: O=c1cc(CO)occ1O [Kojic acid] was tested. Which “melanin production (in words)” value did it give?
Answer: Its value is “decrease in melanin production”.
